The values that follow come from ChEMBL document CHEMBL1909046, “DrugMatrix in vitro pharmacology data”.

In data set [1] the target is Beta-2 adrenergic receptor (Homo sapiens, UniProt P07550). In words: DRUGMATRIX: Adrenergic beta2 radioligand binding (ligand: [3H] CGP-12177). It counts as cell membranes, Membrane. The following applies: cho; Not Active = under 50% inhibition at 10 µM.
Data set [2] in a line: DRUGMATRIX: Atrial Natriuretic Factor (ANF) radioligand binding (ligand: [125I] ANF (rat)). The note with it: Not Active = under 50% inhibition at 10 µM. It is filed as cell membranes, Cavia porcellus, Dunkin-Hartley, Adrenal gland, Membrane.
In data set [3] the target is T1, 5-hydroxytryptamine receptor 2C (Homo sapiens, UniProt P28335).
T1 sequence (P28335 whole entry): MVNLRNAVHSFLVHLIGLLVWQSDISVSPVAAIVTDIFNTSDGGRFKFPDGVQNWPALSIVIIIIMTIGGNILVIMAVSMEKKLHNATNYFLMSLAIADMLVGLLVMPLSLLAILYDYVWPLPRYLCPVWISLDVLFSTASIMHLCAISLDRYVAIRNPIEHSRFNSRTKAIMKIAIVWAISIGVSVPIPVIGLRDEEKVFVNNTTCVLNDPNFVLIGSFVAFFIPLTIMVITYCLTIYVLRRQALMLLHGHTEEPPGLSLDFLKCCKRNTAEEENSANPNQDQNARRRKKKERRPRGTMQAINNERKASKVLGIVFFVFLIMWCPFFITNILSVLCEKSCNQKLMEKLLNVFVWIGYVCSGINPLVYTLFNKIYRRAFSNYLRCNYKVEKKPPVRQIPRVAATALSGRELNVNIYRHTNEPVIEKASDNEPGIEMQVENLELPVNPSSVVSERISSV
Kind of data set: DRUGMATRIX: Serotonin (5-Hydroxytryptamine) 5-HT2C radioligand binding (ligand: [3H] Mesulergine). The following applies: cho-k1; Not Active = under 50% inhibition at 10 µM. It is filed as cell membranes, CHO-K1, Membrane.

The nature of data set [4]: DRUGMATRIX: Tumor Necrosis Factor (TNF), Non-Selective radioligand binding (ligand: [125I] TNF-alpha). It counts as cell membranes, Membrane. The note with it: u-937; Not Active = under 50% inhibition at 10 µM.
Data set [5] has as its target Prostaglandin G/H synthase 1 (Homo sapiens, UniProt P23219). Kind of data set: biochemical. It is filed as tissue-based, Platelet.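 Further: inhibition of COX-1 enzyme activity, with arachidonic acid supplied as substrate; in other assays of this panel Not Active means under 50% inhibition at 10 µM.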
Data set [6] is described as follows: DRUGMATRIX: Glutamate, NMDA, Agonism radioligand binding (ligand: [3H] CGP-39653). The following applies: Not Active = under 50% inhibition at 10 µM. It counts as cell membranes, Rattus norvegicus, Wistar, Cerebral cortex, Membrane.
Data set [7] is described as follows: DRUGMATRIX: Nicotinic Acetylcholine radioligand binding (ligand: [125I] Epibatidine). It is filed as cell membranes, Membrane. The following applies: imr-32; Not Active = under 50% inhibition at 10 µM.
For data set [8], the target named is Platelet-activating factor receptor (Homo sapiens, UniProt P25105). In words: biochemical. It counts as tissue-based. The note with it: platelet. Further: in other assays of this panel Not Active means under 50% inhibition at 10 µM.
Chain of Platelet-activating factor receptor (P25105 whole entry): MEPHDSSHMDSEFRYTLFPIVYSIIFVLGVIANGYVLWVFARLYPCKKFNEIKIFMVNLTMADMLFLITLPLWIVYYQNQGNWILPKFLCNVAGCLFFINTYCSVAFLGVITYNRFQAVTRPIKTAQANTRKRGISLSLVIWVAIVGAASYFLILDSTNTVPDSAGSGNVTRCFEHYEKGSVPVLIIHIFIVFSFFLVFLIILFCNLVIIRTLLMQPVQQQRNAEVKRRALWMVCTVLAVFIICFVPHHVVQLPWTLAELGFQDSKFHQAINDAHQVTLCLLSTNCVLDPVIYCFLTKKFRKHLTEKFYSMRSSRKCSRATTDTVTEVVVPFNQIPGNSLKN
Data set [9] concerns the target T2, Angiotensin-converting enzyme (Oryctolagus cuniculus, UniProt P12822).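 Further: enzymatic inhibition of angiotensin-converting enzyme measured with FAPGG as the substrate; in other assays of this panel Not Active means under 50% inhibition at 10 µM.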
T2 sequence (P12822 whole entry): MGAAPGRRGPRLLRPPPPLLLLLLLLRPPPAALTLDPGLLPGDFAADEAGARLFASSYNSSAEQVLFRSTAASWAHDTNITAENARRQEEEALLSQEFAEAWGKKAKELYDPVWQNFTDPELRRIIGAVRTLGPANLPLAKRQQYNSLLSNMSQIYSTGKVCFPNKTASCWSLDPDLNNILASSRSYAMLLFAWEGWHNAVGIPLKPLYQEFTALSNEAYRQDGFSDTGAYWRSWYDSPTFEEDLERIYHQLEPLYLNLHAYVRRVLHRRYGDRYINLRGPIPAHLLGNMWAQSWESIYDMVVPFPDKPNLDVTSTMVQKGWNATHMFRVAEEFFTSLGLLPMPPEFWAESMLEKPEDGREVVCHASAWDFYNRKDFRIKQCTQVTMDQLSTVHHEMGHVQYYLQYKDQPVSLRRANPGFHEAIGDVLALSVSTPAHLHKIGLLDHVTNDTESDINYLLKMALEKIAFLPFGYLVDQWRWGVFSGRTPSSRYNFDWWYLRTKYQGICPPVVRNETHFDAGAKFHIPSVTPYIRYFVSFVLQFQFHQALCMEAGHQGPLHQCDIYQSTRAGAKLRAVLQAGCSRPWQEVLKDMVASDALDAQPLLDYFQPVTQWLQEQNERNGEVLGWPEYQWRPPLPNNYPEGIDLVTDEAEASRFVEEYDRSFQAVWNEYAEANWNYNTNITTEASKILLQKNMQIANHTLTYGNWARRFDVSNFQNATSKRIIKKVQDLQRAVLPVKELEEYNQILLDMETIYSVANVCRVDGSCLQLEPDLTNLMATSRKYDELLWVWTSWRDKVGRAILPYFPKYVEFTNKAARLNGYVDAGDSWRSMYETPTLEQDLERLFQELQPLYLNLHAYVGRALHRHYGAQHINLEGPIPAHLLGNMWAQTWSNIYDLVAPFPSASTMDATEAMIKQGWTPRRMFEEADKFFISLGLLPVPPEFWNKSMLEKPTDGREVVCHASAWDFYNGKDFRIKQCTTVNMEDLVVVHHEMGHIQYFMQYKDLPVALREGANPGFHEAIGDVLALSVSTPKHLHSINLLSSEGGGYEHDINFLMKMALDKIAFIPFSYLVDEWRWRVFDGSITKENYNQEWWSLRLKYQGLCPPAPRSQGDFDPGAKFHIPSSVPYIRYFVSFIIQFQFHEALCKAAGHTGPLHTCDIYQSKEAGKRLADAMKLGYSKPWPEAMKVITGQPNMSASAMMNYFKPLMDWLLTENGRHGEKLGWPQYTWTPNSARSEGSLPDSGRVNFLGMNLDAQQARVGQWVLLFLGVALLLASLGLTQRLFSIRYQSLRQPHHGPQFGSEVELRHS
In words: biochemical. It counts as tissue-based, Lung.

In the next data set the target is T3, Caspase-1 (Homo sapiens, UniProt P29466).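 Further: Caspase-1 enzyme inhibition assay with a peptide substrate; in other assays of this panel Not Active means under 50% inhibition at 10 µM.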
T3 sequence (P29466 whole entry): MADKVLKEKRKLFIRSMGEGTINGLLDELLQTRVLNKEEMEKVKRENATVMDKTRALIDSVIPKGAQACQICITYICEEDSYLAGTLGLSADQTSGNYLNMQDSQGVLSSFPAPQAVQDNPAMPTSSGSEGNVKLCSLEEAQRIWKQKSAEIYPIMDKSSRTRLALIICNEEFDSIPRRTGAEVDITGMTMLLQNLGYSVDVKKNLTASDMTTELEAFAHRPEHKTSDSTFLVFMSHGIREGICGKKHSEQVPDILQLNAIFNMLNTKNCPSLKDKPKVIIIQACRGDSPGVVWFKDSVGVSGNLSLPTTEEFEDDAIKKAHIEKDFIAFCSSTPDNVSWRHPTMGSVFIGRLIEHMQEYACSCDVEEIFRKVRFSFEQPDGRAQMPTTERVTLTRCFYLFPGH
Further details: species or system Escherichia coli.

The target in data set [10] is Protein kinase C alpha type (Homo sapiens, UniProt P17252). It is filed as cell-based. The note with it: sf9.
Another data set concerns the target Cytochrome P450 3A4 (Homo sapiens, UniProt P08684). The following applies: bti-tn-5b1-4. Further: in other assays of this panel Not Active means under 50% inhibition at 10 µM.

Chain of Prostaglandin G/H synthase 1 (P23219 whole entry): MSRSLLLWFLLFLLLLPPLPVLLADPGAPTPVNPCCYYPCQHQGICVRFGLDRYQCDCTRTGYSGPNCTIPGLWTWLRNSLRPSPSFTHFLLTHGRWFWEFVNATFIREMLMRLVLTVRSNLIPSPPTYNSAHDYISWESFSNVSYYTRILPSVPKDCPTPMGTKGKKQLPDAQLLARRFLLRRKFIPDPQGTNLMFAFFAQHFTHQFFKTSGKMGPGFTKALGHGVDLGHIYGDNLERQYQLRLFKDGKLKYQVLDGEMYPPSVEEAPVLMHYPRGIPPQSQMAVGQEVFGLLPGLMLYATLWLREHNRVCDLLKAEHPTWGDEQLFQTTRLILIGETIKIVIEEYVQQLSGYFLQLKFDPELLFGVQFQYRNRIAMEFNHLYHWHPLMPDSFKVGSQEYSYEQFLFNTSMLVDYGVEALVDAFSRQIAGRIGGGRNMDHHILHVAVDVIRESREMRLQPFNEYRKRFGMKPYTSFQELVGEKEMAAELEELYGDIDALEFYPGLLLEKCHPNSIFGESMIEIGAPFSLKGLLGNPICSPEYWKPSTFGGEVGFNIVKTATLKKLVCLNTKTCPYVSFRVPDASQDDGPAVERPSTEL
Chain of Beta-2 adrenergic receptor (P07550 whole entry): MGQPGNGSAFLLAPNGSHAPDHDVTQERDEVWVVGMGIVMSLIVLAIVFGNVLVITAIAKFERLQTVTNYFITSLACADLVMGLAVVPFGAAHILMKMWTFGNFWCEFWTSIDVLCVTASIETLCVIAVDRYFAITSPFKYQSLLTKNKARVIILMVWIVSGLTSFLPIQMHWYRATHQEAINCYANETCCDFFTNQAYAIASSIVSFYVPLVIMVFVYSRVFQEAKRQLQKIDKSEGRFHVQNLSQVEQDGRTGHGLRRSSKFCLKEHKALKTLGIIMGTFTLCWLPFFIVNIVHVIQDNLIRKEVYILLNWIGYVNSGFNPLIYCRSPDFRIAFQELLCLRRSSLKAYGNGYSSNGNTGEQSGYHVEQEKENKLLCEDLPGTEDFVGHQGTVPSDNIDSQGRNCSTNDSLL
Chain of Cytochrome P450 3A4 (P08684 whole entry): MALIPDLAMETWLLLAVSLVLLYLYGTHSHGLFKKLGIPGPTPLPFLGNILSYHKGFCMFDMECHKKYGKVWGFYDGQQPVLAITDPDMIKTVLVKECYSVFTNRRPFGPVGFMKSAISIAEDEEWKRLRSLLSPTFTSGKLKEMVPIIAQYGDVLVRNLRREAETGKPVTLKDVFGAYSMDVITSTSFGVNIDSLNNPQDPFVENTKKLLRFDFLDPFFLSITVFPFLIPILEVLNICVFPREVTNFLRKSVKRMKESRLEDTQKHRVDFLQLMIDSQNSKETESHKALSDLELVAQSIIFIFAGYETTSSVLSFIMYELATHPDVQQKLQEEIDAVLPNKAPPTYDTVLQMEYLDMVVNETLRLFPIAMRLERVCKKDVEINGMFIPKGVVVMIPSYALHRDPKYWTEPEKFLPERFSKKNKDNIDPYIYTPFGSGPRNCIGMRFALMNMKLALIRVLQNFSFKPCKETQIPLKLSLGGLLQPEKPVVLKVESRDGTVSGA

Consider `COc1ccc2cc(CC(=O)O)ccc2c1`, for which the IC50 (in general, the midpoint of a concentration-inhibition curve) in [1] was “Not Active”; in data set [2] it was “Not Active”; in data set [3] it was “Not Active”; in data set [4], “Not Active”; in data set [5] (read-out: IC50), 4.11 µM; in data set [6], “Not Active”. Moreover, the IC50 result (in [7]; in data set [8]; in [9]; against Caspase-1; in data set [10]; against Cytochrome P450 3A4) was “Not Active” throughout. The Ki entry (in data set [2]; in data set [4]; in data set [6]; in data set [7]; on Cytochrome P450 3A4) was “Not Active” each time.

Turning to `c1ccc2c(c1)cc1ccc3cccc4ccc2c1c34`, the IC50 result in [1], in [2], in [3], in data set [4], in data set [5] (platelet) and in [6] was “Not Active” in each case. Further, the IC50 result (in data set [7]; in [8]; in data set [9]; on Caspase-1; in [10]; against Cytochrome P450 3A4) was “Not Active” throughout. In addition, the Ki entry (in data set [2]; in [4]; in [6]; in data set [7]; on Cytochrome P450 3A4) was “Not Active” throughout.

As for `CC=CC(=O)N(CC)c1ccccc1C`, the IC50 entry in data set [1], in [2], in data set [3], in [4], in data set [5] (platelet) and in [6] was “Not Active” throughout. Further, the concentration for half-maximal inhibition (IC50) result (in data set [7]; in data set [8]; in data set [9]; against Caspase-1; in data set [10]; against Cytochrome P450 3A4) was “Not Active” in each case. Further, the Ki entry (in [2]; in [4]; in data set [6]; in [7]; at Cytochrome P450 3A4) was “Not Active” each time.

Turning to `C=C1C(=O)O[C@@H]2C3O[C@]3(C)CC/C=C(\C)CC[C@@H]12` (stereo not given in full), the half-inhibitory concentration (IC50) entry in [1], in data set [2], in data set [3], in data set [4], in data set [5] (platelet) and in data set [6] was “Not Active” throughout. In addition, the IC50 result (in [7]; in data set [8]; in data set [9]; on Caspase-1; in [10]; on Cytochrome P450 3A4) was “Not Active” throughout. In addition, the Ki entry (in data set [2]; in [4]; in data set [6]; in data set [7]; on Cytochrome P450 3A4) was “Not Active” in each case.

Turning to `CC(/C=C1\SC(=S)N(CC(=O)O)C1=O)=C\c1ccccc1`, the IC50 entry in [1], in [2], in data set [3], in data set [4], in data set [5] (platelet) and in data set [6] was “Not Active” in each case. The IC50 entry (in [7]; in data set [8]; in data set [9]; against Caspase-1; in [10]; at Cytochrome P450 3A4) was “Not Active” each time. Besides, the Ki result (in data set [2]; in data set [4]; in data set [6]; in [7]; at Cytochrome P450 3A4) was “Not Active” throughout.

On to `CC1COc2c(N3CCN(C)CC3)c(F)cc3c(=O)c(C(=O)O)cn1c23` (stereo not given) [OFLOXACIN], for which the IC50 result in data set [1], in data set [2], in [3], in [4], in data set [5] (platelet) and in [6] was “Not Active” each time. In addition, the IC50 entry (in data set [7]; in [8]; in [9]; against Caspase-1; in [10]) was “Not Active” in each case. The Ki result in data set [2], in data set [4], in data set [6] and in [7] was “Not Active” each time.
